Assay results: patent publication US12648941B2, “Piperidine urea derivatives for use as inotropic agents” (Helsinn Healthcare SA, priority 2021, dated 2026)
“Also recorded” adds a separate entry of the source.

Tested on: cardiomyocytes isolated from hearts of SHAM mice
Experiment: Cardiomyocyte contractility (fractional shortening, % FS), SHAM cardiomyocytes
Assay type: cell-based, mouse
Experimental: Cardiomyocytes were isolated freshly from cardiac ventricles separately from SHAM and HF mice following the protocol developed by the Alliance for Cellular Signalling (AfCS Procedure Protocol ID PP00000125). From each of the 5 SHAM and 3 HF hearts a cell suspension was made and divided into 10 aliquots each, for a total of 50 aliquots from SHAM and 30 aliquots from HF hearts. These aliquots were treated with vehicle, AC01/HM01 or D-Lys3-GHPR-6+AC01/HM01 as stated and used for the subsequent physiological and biochemical experiments.
AC01/HM01 was suspended in phosphate buffer saline solution (PBS: in mM: NaCl 137, KCl 7, Na2HPO4 10, KH2PO4 […]) and diluted to obtain 3 different concentrations: 0.2, 0.5 or 1 μM in Tyrode solution. We used a concentration range within 0.2-1 μM to ensure that the receptor was activated. […] Prior to contractility and Ca^2+ signaling measurements and biochemical assays, cardiomyocyte suspensions from SHAM and HF hearts were randomized to 3 types of treatments: vehicle, AC01/HM01, or D-Lys3-GHPR-6+AC01/HM01. The treatment with different agents occurred for 15 minutes at room temperature. Some cell suspension aliquots were flash frozen in liquid N2 and stored at −80° C. for later biochemistry analyses. All the experiments were conducted blinded regarding the treatment of cardiomyocytes.
Fresh isolated cardiomyocytes were aliquoted in 1.5 mL tubes and incubated with a cell permeable form of the fluorescent Ca^2+ indicator Fluo-3 AM for approximately 20 minutes followed by washing for >5 min. The cells were plated on laminin coated glass bottom dishes (35 mm, Mattek, Ashland, MA, USA), and then mounted in a custom built perfusion/stimulation chamber. Cells were continuously perfused with O2/CO2 (95/5%) bubbled Tyrode solution with the following composition (in mM): NaCl 121, KCl 5.0, CaCl2 1.8, MgCl2 0.5, NaH2PO4 0.4, NaHCO3 24, EDTA 0.1, glucose 5.5, which represents the vehicle solution.
15 aliquots of cardiomyocyte suspension from SHAM and 9 aliquots from HF were randomized to different treatments: vehicle, AC01/HM01 (0.2, 0.5 or 1 μM) or pretreatment with D-Lys3-GHPR-6 (3 μM) followed by AC01/HM01 (1 μM). The cardiomyocytes were electrically stimulated to contract at 1 Hz with supra-threshold voltage using two platinum electrodes attached to the perfusion/stimulation chamber.
Line scan fluorescence images were acquired using a confocal microscope (Biorad; 40× oil immersion lenses). […] ImageJ software (open source software developed by NIH, Bethesda, USA) was used to quantify changes in fluorescence (Ca^2+ transients) and contractility of single cardiomyocytes.
The contractility of cardiomyocytes was measured as the percent of length shortening (fractional shortening; % FS). […]

For `COc1ccc([C@H](C)NC(=O)N(C)[C@@H]2CCN(C)CC2(C)C)c(Cl)c1Cl.Cl` [AC01/HM01, 1-[(1S)-1-(2,3-dichloro-4-methoxyphenyl)ethyl]-3-methyl-3-[(4R)-1-methyl-3,3-dimethyl-4-piperidyl]-urea], the “contractility, fractional shortening (FS %) vs vehicle” value (0.5 μM) was “considerable and statistically significant response”, the “contractility, fractional shortening (FS %) vs vehicle” value (1 μM) was “considerable and statistically significant response; also recorded: significant increase of contractility; also recorded: greatest contractile effect compared to vehicle; also recorded: positively responded” and the “contractility, length fractional shortening (FS %), concentration dependence” value (0.2, 0.5 and 1 μM vs vehicle, 1 Hz stimulation) was “increased in a dose-dependent manner; also recorded: dose-dependent increase”.
